As usually defined, the melting point is the temperature, or range, at which the solid turns liquid.

For `COc1ccc(C2(C)C(=O)Nc3cc(Cl)cc(Cl)c3C2=O)cc1[N+](=O)[O-]` (stereo not given), the melting point lay within 255 to 256 °C.

`Cc1cc2c(c3ccc(=O)[nH]c13)OC(COS(C)(=O)=O)C2` (stereo not given) displayed a melting point of 200 to 203 °C.

Consider `N#Cc1cccc(NC(=O)c2cc(-c3ccc(F)cc3F)ccc2O)c1`, for which the melting point lay within 229 to 230 °C.

Molecule `CC(=O)[C@@H]1CC(=S)N(C(C)=O)C1` came in with a melting point of 49 to 51 °C.

Molecule `CC(=O)NC[C@H]1CN(c2ccc(C3CCN(C=O)CC3)c(F)c2)C(=O)O1` came in with a melting point of 186 to 187 °C.

On to `C=CCn1c(NCCCOc2ccccc2)nc(N2CCc3ccccc3CC2)c(C#N)c1=O`, for which the melting point lay within 157 to 159 °C.

In the case of `COc1ccc(C(=O)c2ccccc2NC(=O)CNC(=O)OCc2ccccc2)cc1`, the melting point was 97 to 98 °C.

On to `CCCCCCCCC#Cc1ccc(C(=O)O)cc1`, for which the melting point worked out at 103 °C.

For `CCCCCCCCCCCCCCCCOCCSCCOC(=O)N(Cc1ccccn1)C(C)=O`, the melting point lay within 41 to 44 °C.

Regarding `Cc1[nH]cnc1/C=C/C(=O)c1coc2ccccc12`, the melting point fell in the range of 192 to 193 °C.

In the case of `O=S1(=O)CCCN1CCc1ccncc1`, the melting point stood at 70 °C.

As to `COCC(Oc1ccc(Nc2ccc(C(F)(F)F)cc2[N+](=O)[O-])cc1)C(=O)OC` (stereo not given), the melting point stood at 57 °C.

`COC(=O)N1CCc2c(O)noc2C1` registered a melting point of 136 to 138 °C.

As to `COc1cc(OC)nc(NC(=O)NS(=O)(=O)c2nn(C)c3cccc(F)c23)n1`, the melting point lay in the range of 205 to 209 °C.

Turning to `COC(=O)c1c(C(=O)OC)c(-c2ccc(F)c(F)c2)n2c1Cc1ccccc1C2`, the melting point is 142 to 144 °C.

Regarding `COC(=O)c1ccc(O)c(C(C)(C)C)c1`, the melting point lay in the range of 144 to 145 °C.

Consider `CC1(O)CN(c2ccc([N+](=O)[O-])cc2F)C1`, for which the melting point was 109 to 110 °C.

`CCC(=O)N1C(=S)NC(C)=C(C(=O)OC)C1c1cccc([N+](=O)[O-])c1` (stereo not given) displayed a melting point of 167 to 171 °C.

`O=C[C@H]1CC[C@H](c2ccc(F)cc2)CC1` gave a melting point of less than 30 °C.

In turn, `Cc1ccc(-n2ccc(C=O)c2)cc1` gave a melting point of 71 to 72 °C.

In turn, `O=c1[nH]ncc2c1c(O)nc1cc(Cl)cc(Cl)c12` registered a melting point greater than 350 °C.

As for `CCN(CC)CCOc1ccn2nc(-c3ccccc3)c(-c3ccc(=O)n(C(C)C)n3)c2c1`, the melting point was 92.5 to 94.5 °C.

The molecule `O=C1OC(=O)c2cc3ncccc3c3cc([N+](=O)[O-])cc1c23` came in with a melting point greater than 300 °C.

The molecule `O=C(OCc1ccccc1)N1CCN(c2ccc(S(=O)(=O)N3CCCC3=O)cc2)CC1` displayed a melting point of 153 to 155 °C.

As for `BrCCC1(c2ccccc2)OCCO1`, the melting point was in the range of 57 to 58 °C.

Molecule `COc1cc(C=O)cc(F)c1OC` displayed a melting point of 51 to 53 °C.

As for `O=c1n(CCCCN2CCN(c3ccccc3)CC2)nc2n1-c1ccccc1OC2`, the melting point was in the range of 85 to 87 °C.

On to `O=C(NC(=O)c1cc(F)ccc1Cl)Nc1ccc(OC(F)(F)F)cc1`, for which the melting point was 199 °C.

`COC(=O)c1ccccc1S(=O)(=O)NC(=O)Nc1nc(N)cc(Cl)n1` returned a melting point of 170 to 172 °C.

Molecule `CC(C)COc1cc(-c2ccc(N)c(OCC(C)C)c2)ccc1N` returned a melting point of 270 °C.

As for `COC(=O)c1ccc(CC(C)NCC(O)c2ccc(O)c(NS(C)(=O)=O)c2)cc1` (stereo not given), the melting point was in the range of 133 to 140 °C.

Turning to `NCC(=O)NC(Cc1ccccn1)c1ccccc1` (stereo not given), the melting point was 75 to 77 °C.

For the molecule `Clc1ccccc1OCC1(c2ccccc2)CCN(Cc2ccccc2)CCO1` (stereo not given), the melting point is 114 to 115 °C.

`O=C1C=C(OCCCCCCI)c2ccccc2C1=O` registered a melting point of 85 to 87 °C.

In turn, `CCCC1(C)C(=O)N(CCl)S(=O)(=O)N1C` (stereo not given) registered a melting point of 99 to 100 °C.

The molecule `CN1CCN(c2ncccc2OC2CCN(c3ccc(C4CCOCC4)cc3)C2=O)CC1` (stereo not given) yielded a melting point of 219 to 248 °C.

`O=c1c2c(c1=O)Nc1c(cc(Cl)c(Cl)c1Cl)N2` displayed a melting point greater than 360 °C.

In turn, `Brc1cccc(C2Cc3cnc(Nc4ccc(CCNc5ccccc5)cc4)nc3-c3ccccc32)c1` (stereo not given) gave a melting point of 92 to 94 °C.

The molecule `COCS[C@H](C)[C@](O)(Cn1cncn1)c1ccc(Cl)cc1` displayed a melting point of 122 °C.

`NC(CC(=O)O)c1ccccc1[N+](=O)[O-]` (stereo not given) registered a melting point of 222 °C.

For `C#CCS(=O)c1ncc(Cl)cn1` (stereo not given), the melting point was found to be 92 °C.

`NC(=O)CCC1CN(c2ccc3c(c2)OCC2CN(C(=O)CO)CCN32)C(=O)O1` (stereo not given) gave a melting point of 115 to 118 °C.

In turn, `CCOC(=O)CCC(=O)c1ccc(Cl)c(S(N)(=O)=O)c1` returned a melting point of 94 to 95 °C.

In the case of `O=C(O)Cc1ccc(Oc2ccc(CC3SC(=O)NC3=O)cc2)cc1` (stereo not given), the melting point amounted to 166 °C.

Molecule `FC(F)(F)c1cc(-c2cccs2)[nH]n1` returned a melting point of 121 °C.

On to `COC(=O)COc1ccc(OCCC2CCN(c3ccncc3)CC2)cc1`, for which the melting point was in the range of 86 to 88 °C.

For the molecule `O=C(Cc1cnoc1-c1ccccc1)Nc1nc(-c2ccc(Cl)cc2)cs1`, the melting point lay in the range of 210 to 211 °C.

With `Cc1nn(C)c2ncc(C(=O)O)c(NCS(=O)(=O)c3ccc(F)cc3)c12`, the melting point lay in the range of 275 to 276 °C.

`CC(C(=O)O)c1ccc2cc(OCc3csc(-c4ccccc4)n3)ccc2c1` (stereo not given) showed a melting point of 163 to 164 °C.

The molecule `O=C(O)COc1cc2c(=O)c3c(F)cccc3oc2cc1Cl` displayed a melting point of 242 to 245 °C.

`Cc1ccc(C23CNCC2CC3=O)cc1` (stereo not given) gave a melting point of 130 to 133 °C.

With `CCCc1nc(N)nc(N)c1N1CCN(c2ccc(C(=O)OCC)cc2)CC1`, the melting point was in the range of 215 to 216 °C.

Molecule `COc1ccc(-c2cc3cc(F)c(F)cc3[nH]2)cc1NS(=O)(=O)c1cc(Cl)cc(Cl)c1` displayed a melting point of 217 to 219 °C.

With `CC(C)n1nc(-c2cc(NC(=O)OC(C)(C)C)cnc2-c2ccccc2)ccc1=O`, the melting point was 221 to 223 °C.

In turn, `CCOc1nc(Nc2cccc(C(F)(F)F)c2)nc(N2CCN(C(=O)c3ccn(CC)n3)CC2)n1` displayed a melting point of 145 to 148 °C.

For `ON=Cc1cc(F)ccc1Cl`, the melting point lay within 133 to 134 °C.

Regarding `Cc1cc(O)ccc1-c1c(C=O)sc(-c2ccc(O)c(F)c2)c1C`, the melting point lay in the range of 227 to 230 °C.

The molecule `CC(C)(C)OC(=O)N1CCCN(c2ccc(C(C)(C)C)cc2)CC1` yielded a melting point of 62 to 64 °C.

`CC1Cc2cc(C(=O)O)ccc2C1=O` (stereo not given) registered a melting point of 189 to 194 °C.

`O=C(N[C@H](CCCO)c1nc(-c2ccccc2)c(-c2ccccc2)o1)OCc1ccccc1`: the melting point fell in the range of 72.3 to 75.1 °C.

In the case of `CC(=O)Oc1ccc(CC2SC(=O)NC2=O)cc1` (stereo not given), the melting point was 115 to 117 °C.

Consider `O=C(COc1cc(-c2ccc([N+](=O)[O-])cc2)nc2cccc(C(F)(F)F)c12)N1CCOCC1`, for which the melting point is 222 °C.

As to `COc1c(CS(=O)(=O)C2=NOC(C)(C)C2)c(C(F)(F)F)nn1C`, the melting point was 113 to 114 °C.

Take `Cc1ccc(S(=O)(=O)n2c(CCCC(=O)O)cc3nc(Cl)ccc32)c2ccccc12`: the melting point was 199 to 204 °C.

In the case of `CCCCc1ccc(CCCC(=O)O)cc1`, the melting point lay in the range of 56 to 58 °C.
